In patent US8729088B2, “Toll-like receptor modulators and treatment of diseases” (The Regents of the University of California, priority 2009, dated 2014):

System: pro-inflammatory cytokines (IL-6, TNF-α) in sera
Assay: In vivo kinetics of pro-inflammatory cytokine induction after intravenous injection
Design: species or system mouse
Method: The pharmacokinetics of pro inflammatory cytokine induction by TLR7 conjugates was examined using 6- to 8-week old C57BL/6 mice. […] Blood samples were collected 2, 4, 6, 24 or 48 hours after injections. Sera were separated and kept at −20° C. until use.

## COCCOc1nc(N)c2nc(O)n(Cc3ccc(C(=O)NCCOCCOCCOCCOCCOCCOCCOCCOCCOCCOCCn4cc(CCC(=O)O)nn4)cc3)c2n1 [Compound 8, 3-(1-(1-(4-((6-amino-8-hydroxy-2-(2-methoxyethoxy)-9H-purin-9-yl)methyl)phenyl)-1-oxo-5,8,11,14,17,20,23,26,29,32-decaoxa-2-azatetratriacontan-34-yl)-1H-1,2,3-triazol-4-yl)propanoic acid]
200 nmol per animal i.v.
  IL-6 induction in serum: only a low level
200 nmol per animal i.v., any point post injection
  TNFα induction in serum: no significant induction
FIGS. 4A-B
  IL-6 or TNFα stimulating activity: little or no IL-6 or TNFα stimulating activity
Concluded from FIGS. 4A-B, 7A-B and 8
  antagonistic activity: antagonistic activity under certain conditions
